Measurements as given in patent US8299088B2, “Compositions and methods for treating cancer” (priority 2003, dated 2012).
Where two headings read alike, the source gives them in different places.

Assays:
H460 cells [1] = assay: Intracellular activation of hypoxia activated prodrugs (drug metabolism in medium of cells, LC-MS/UV 370 nm); conditions: for Example 12 compound UV peak area (370 nm): drug only (no cells), ~30 μM, 3 hours 37° C
H460 cells [2] = assay: Clonogenic toxicity assay; format: cell-based, human; conditions: 2 hr compound exposure; for IC90: Homo sapiens, NCI-H460, normoxic (air) and anoxic, no significant difference
Description: The clonogenic assay measures the reproductive ability of a surviving cell by specifically determining if a cell can grow to form a colony of greater than 50 cells. Briefly, cells are treated with a drug for an acute exposure and then the drug is removed. Cells are trypinized to form single cell suspensions and known numbers of cells are plated and incubated until colonies form. Colonies are counted and the cell survival is calculated based on number of colonies formed in the treated groups compared to number of colonies formed in the untreated controls. […] The terms aerobic and normoxic are used interchangeably.
Exponentially growing human H460 cells (obtained from ATCC) were seeded into 60 mm notched glass plates between 2.5 and 5×10^5 cells per plate and grown in RPMI medium supplemented with 10% fetal bovine serum for 2 days prior to initiating treatment. On the day of the experiment drug stocks of known concentrations were prepared in complete medium and 2 ml added to each plate. Glass plates were sealed into airtight aluminum vessels equipped with a valve to control gas flow. To achieve complete equilibration between the gas phase and the liquid phase a series of gas exchanges were performed on each vessel while shaking. Vessels were evacuated and gassed with either a certified anoxic gas mixture (95% nitrogen and 5% carbon dioxide) or with aerobic gas mixture (95% air and 5% carbon dioxide). Specifically, each vessel was evacuated to minus 26 inches of mercury and held for 15 seconds before gassing at 20 psi and again holding for 15 seconds. After a series of five evacuations and gassings the vessels were held an additional 5 minutes before a final evacuation and refilling of each vessel with the desired gas mixture at 0.5 psi above atmospheric pressure. Cells were incubated for 2 hours at 37° C. […] The exact concentration of each stock was determined by counting with a Coulter Z2 particle counter. […] Colonies of greater than 50 cells were counted and the surviving fraction determined.

H460 cells [3] = test system: H460 cells

What does the source list for `CC[C@@]1(O)C(=O)OCc2c1cc1n(c2=O)Cc2cc3cc(O)ccc3nc2-1` [10-OH Camptothecin, 10-Hydroxycamptothecin, reference compound]?
Example 12 compound UV peak area (370 nm) (H460 cells [1]; aerobic): 0; Example 12 compound UV peak area (370 nm) (H460 cells [1]; anoxic): 0

With `COc1cccc2c1C(=O)c1c(O)c3c(c(O)c1C2=O)C[C@@](O)(C(C)=O)C[C@@H]3O[C@H]1C[C@H](N)[C@H](O)[C@H](C)O1` [daunorubicin] as the molecule, how does the “toxicity difference between normoxic (air) and anoxic conditions” value (H460 cells [2]) read?
Its value is “no significant toxicity difference”.

And the IC90 (H460 cells [2]; read-out: IC 90 (90% inhibition of colony formation))?
The IC90 was 500 nM.

And the IC90 (H460 cells [2]; read-out: IC 90 data ranges over multiple experiments)?
The IC90 was 200 to 1000 nM.

Which “release of 10 hydroxycamptothecin” value (H460 cells [3]) does the source give for `CCC1(O)C(=O)OCc2c1cc1n(c2=O)Cc2cc3cc(OCc4cnc([N+](=O)[O-])n4C)ccc3cc2-1` (stereo not drawn) [Example 12] here?
The value was “no detectable release”.

What about the “10-Hydroxy Campothecin UV peak area (370 nm)” value (H460 cells [3]; 3 h, 30 uM) of the same molecule?
Its value is ~0.

And the “selectivity of release mechanism (anoxic versus hypoxic)” value (H460 cells [1]; in words)?
The value was “highly selective”.

What about the “degree of release (conversion to 10 hydroxy-camptothecin)” value (H460 cells [1]; trial 4: anoxic, with H460 cells) of the same molecule?
Its value is “over half”.
